Test results as given in ChEMBL document CHEMBL4396909, “Evolution of HIV-1 reverse transcriptase and integrase dual inhibitors: Recent advances and developments” (Eur J Med Chem, 2019).

Test system: Human immunodeficiency virus 1
Experiment: Antiviral activity against HIV-1 infected in HEK293 cells preincubated for 4 hrs with cell followed by viral infection measured after 24 hrs by luciferase reporter gene assay
Format: functional, organism-based
Settings: Human immunodeficiency virus 1, HEK293

IC50: 480 nM
Structure (SMILES): O=C(O)C(=O)CC(=O)c1cc(OCc2ccccc2)cc(OCc2ccccc2)c1
